PubChem BioAssay (NCI)
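Five compound concentrations were applied to cells in 96-well plates for 48 hours; endpoints were derived by simple linear interpolation of the resulting dose-response curve. TGI is the concentration that stops growth completely.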

Assays:
Assay in all cases: NCI anticancer screen, dose series, 48 h
MOLT-4 leukemia = test system: MOLT-4 leukemia
M14 melanoma = test system: M14 melanoma
SK-MEL-28 melanoma = test system: SK-MEL-28 melanoma
NCI-H23 lung = test system: NCI-H23 lung
KM12 colon = test system: KM12 colon
PC-3 prostate = test system: PC-3 prostate
HCT-15 colon = test system: HCT-15 colon
OVCAR-3 ovarian = test system: OVCAR-3 ovarian
NCI-H226 lung = test system: NCI-H226 lung
T-47D breast = test system: T-47D breast
CAKI-1 renal = test system: CAKI-1 renal
NCI-H460 lung = test system: NCI-H460 lung
U251 CNS = test system: U251 CNS
ACHN renal = test system: ACHN renal
NCI/ADR-RES ovarian = test system: NCI/ADR-RES ovarian
IGROV1 ovarian = test system: IGROV1 ovarian
DU-145 prostate = test system: DU-145 prostate
K-562 leukemia = test system: K-562 leukemia
HCT-116 colon = test system: HCT-116 colon
HOP-62 NSCLC = test system: HOP-62 NSCLC
TK-10 renal = test system: TK-10 renal
SK-OV-3 ovarian = test system: SK-OV-3 ovarian
SNB-19 CNS = test system: SNB-19 CNS
UO-31 renal = test system: UO-31 renal
SF-268 CNS = test system: SF-268 CNS
HCC-2998 colon = test system: HCC-2998 colon
HT29 colon = test system: HT29 colon
OVCAR-4 ovarian = test system: OVCAR-4 ovarian
SK-MEL-2 melanoma = test system: SK-MEL-2 melanoma
786-0 renal = test system: 786-0 renal
NCI-H522 lung = test system: NCI-H522 lung
BT-549 breast = test system: BT-549 breast
EKVX NSCLC = test system: EKVX NSCLC
A498 renal = test system: A498 renal
RPMI-8226 leukemia = test system: RPMI-8226 leukemia
A549 NSCLC = test system: A549 NSCLC
UACC-257 melanoma = test system: UACC-257 melanoma
SW-620 colon = test system: SW-620 colon
OVCAR-5 ovarian = test system: OVCAR-5 ovarian
MDA-MB-231 breast = test system: MDA-MB-231 breast
CCRF-CEM leukemia = test system: CCRF-CEM leukemia
RXF 393 renal = test system: RXF 393 renal
SN12C renal = test system: SN12C renal
SF-295 CNS = test system: SF-295 CNS
SNB-75 CNS = test system: SNB-75 CNS
UACC-62 melanoma = test system: UACC-62 melanoma
COLO 205 colon = test system: COLO 205 colon
MCF7 breast = test system: MCF7 breast
OVCAR-8 ovarian = test system: OVCAR-8 ovarian
SK-MEL-5 melanoma = test system: SK-MEL-5 melanoma
MALME-3M melanoma = test system: MALME-3M melanoma
MDA-N = test system: MDA-N
SR leukemia = test system: SR leukemia
HS 578T breast = test system: HS 578T breast
SF-539 CNS = test system: SF-539 CNS
LOX IMVI melanoma = test system: LOX IMVI melanoma
HL-60(TB) leukemia = test system: HL-60(TB) leukemia
MDA-MB-435 = test system: MDA-MB-435
HOP-92 NSCLC = test system: HOP-92 NSCLC

Measured: TGI

COc1cc(C(c2ccc3c(c2)OCO3)C2SCCCS2)cc(OC)c1OC (stereo unspecified)
8.17 µM: IGROV1 ovarian
8.99 µM: SN12C renal
10.1 µM: MCF7 breast
3.08 µM: COLO 205 colon
4.66 µM: SF-295 CNS
7.11 µM: NCI-H226 lung
5.87 µM: NCI-H522 lung
2.92 µM: NCI-H460 lung
27.4 µM: OVCAR-3 ovarian
66.2 µM: OVCAR-5 ovarian
6.11 µM: NCI/ADR-RES ovarian
33 µM: SW-620 colon
7.97 µM: HS 578T breast
75.8 µM: OVCAR-4 ovarian
51.8 µM: NCI-H23 lung
6.58 µM: HCT-15 colon
4.47 µM: RXF 393 renal
26 µM: KM12 colon
21.5 µM: U251 CNS
8.59 µM: DU-145 prostate
10.6 µM: HCT-116 colon
8.29 µM: MOLT-4 leukemia
20.1 µM: CAKI-1 renal
1.77 µM: MDA-N
7.77 µM: RPMI-8226 leukemia
3.56 µM: CCRF-CEM leukemia
9.68 µM: 786-0 renal
3.42 µM: HT29 colon
8.8 µM: HCC-2998 colon
2.07 µM: SR leukemia
28.2 µM: UACC-62 melanoma
5.41 µM: SNB-19 CNS
5.83 µM: SNB-75 CNS
95.5 µM: M14 melanoma
6.21 µM: MDA-MB-231 breast
64.8 µM: OVCAR-8 ovarian
53.3 µM: A549 NSCLC
4.73 µM: K-562 leukemia
5.11 µM: A498 renal
9.21 µM: SK-MEL-5 melanoma
19.6 µM: EKVX NSCLC
not listed: SF-539 CNS | LOX IMVI melanoma | HL-60(TB) leukemia | MDA-MB-435 | HOP-92 NSCLC
> 100 µM: all other assays above

CC1(C)N([O-])[N+](=O)C1(C)O (stereo unspecified)
not listed: ACHN renal | HOP-62 NSCLC | SF-295 CNS | HOP-92 NSCLC
> 100 µM: all other assays above

Nc1ccc(C2SCC(=O)N2NS(=O)(=O)c2cccc(C(=O)O)c2)cc1 (stereo unspecified)
55.7 µM: MALME-3M melanoma
not listed: NCI/ADR-RES ovarian | OVCAR-4 ovarian
> 100 µM: all other assays above
